{"source": "paper PMC7486443", "about": "“Generation of Phenothiazine with Potent Anti-TLK1 Activity for Prostate Cancer Therapy” (iScience, 2020)", "experiment_in_all_cases": "biochemical", "design_in_all_cases": "DiscoverX KINOMEscan scanMAX competition binding panel, single concentration, percent of control; remaining binding: dose or concentration left out as unconfirmed", "details_in_all_cases": "KINOMEscan binding, percent of control; read-out: Table S4_SCANMAX REPORT - related to Fig. 1 / Percent Control", "key": {"[1]": {"target": "T1, ABL1(Q252H)-nonphosphorylated (Homo sapiens, UniProt P00519, Q252H)", "T1 construct": "nonphosphorylated"}, "[2]": {"target": "AKT1 (Homo sapiens, UniProt P31749)", "sequence (P31749 whole entry)": "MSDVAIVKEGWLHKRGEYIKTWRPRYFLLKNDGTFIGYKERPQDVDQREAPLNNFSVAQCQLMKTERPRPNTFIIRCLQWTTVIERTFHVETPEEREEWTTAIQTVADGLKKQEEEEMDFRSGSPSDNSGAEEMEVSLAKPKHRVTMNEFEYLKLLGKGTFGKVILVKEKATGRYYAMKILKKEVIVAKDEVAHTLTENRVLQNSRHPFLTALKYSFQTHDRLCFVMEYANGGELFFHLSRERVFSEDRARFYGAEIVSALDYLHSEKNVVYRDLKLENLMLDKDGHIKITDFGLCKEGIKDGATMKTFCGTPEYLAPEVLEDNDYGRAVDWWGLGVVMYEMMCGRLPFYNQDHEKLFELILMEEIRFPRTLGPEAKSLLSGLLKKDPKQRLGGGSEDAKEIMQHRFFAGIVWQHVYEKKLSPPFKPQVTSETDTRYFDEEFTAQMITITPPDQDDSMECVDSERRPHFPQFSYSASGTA"}, "[3]": {"target": "T2, AMPK-alpha2 (Homo sapiens, UniProt P54646)", "T2 construct": "gene PRKAA2"}, "[4]": {"target": "AURKB (Homo sapiens, UniProt Q96GD4)", "sequence (Q96GD4 whole entry)": "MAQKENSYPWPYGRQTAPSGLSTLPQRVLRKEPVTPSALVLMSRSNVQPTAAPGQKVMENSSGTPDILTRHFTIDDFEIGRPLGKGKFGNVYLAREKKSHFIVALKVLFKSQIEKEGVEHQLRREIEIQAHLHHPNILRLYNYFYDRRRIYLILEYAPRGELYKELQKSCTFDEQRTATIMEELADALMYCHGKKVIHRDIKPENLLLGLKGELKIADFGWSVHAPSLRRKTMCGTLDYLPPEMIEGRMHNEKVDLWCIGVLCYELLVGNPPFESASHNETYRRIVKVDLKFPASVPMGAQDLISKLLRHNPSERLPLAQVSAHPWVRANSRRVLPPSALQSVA"}, "[5]": {"target": "BRSK1 (Homo sapiens, UniProt Q8TDC3)"}, "[6]": {"target": "T3, CDC2L1 (Homo sapiens, UniProt P21127)", "T3 construct": "gene CDK11B"}, "[7]": {"target": "T4, CDC2L5 (Homo sapiens, UniProt Q14004)", "T4 construct": "gene CDK13"}, "[8]": {"target": "CDKL2 (Homo sapiens, UniProt Q92772)"}, "[9]": {"target": "CDKL5 (Homo sapiens, UniProt O76039)"}, "[10]": {"target": "EPHA2 (Homo sapiens, UniProt P29317)"}, "[11]": {"target": "T5, ERK5 (Homo sapiens, UniProt Q13164)", "T5 construct": "gene MAPK7"}, "[12]": {"target": "IRAK4 (Homo sapiens, UniProt Q9NWZ3)", "sequence (Q9NWZ3 whole entry)": "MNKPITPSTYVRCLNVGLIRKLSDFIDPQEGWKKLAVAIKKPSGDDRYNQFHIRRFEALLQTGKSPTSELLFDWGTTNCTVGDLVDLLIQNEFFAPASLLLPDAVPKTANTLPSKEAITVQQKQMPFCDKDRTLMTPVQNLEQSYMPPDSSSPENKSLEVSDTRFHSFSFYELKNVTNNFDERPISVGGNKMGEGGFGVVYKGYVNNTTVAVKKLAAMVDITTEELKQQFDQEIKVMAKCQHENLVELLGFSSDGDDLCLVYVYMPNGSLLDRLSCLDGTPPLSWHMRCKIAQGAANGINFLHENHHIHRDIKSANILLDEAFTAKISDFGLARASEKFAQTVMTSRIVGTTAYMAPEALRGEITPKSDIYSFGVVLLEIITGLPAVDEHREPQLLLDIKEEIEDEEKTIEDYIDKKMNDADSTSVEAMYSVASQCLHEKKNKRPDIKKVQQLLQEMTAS"}, "[13]": {"target": "MARK3 (Homo sapiens, UniProt P27448)", "sequence (P27448 whole entry)": "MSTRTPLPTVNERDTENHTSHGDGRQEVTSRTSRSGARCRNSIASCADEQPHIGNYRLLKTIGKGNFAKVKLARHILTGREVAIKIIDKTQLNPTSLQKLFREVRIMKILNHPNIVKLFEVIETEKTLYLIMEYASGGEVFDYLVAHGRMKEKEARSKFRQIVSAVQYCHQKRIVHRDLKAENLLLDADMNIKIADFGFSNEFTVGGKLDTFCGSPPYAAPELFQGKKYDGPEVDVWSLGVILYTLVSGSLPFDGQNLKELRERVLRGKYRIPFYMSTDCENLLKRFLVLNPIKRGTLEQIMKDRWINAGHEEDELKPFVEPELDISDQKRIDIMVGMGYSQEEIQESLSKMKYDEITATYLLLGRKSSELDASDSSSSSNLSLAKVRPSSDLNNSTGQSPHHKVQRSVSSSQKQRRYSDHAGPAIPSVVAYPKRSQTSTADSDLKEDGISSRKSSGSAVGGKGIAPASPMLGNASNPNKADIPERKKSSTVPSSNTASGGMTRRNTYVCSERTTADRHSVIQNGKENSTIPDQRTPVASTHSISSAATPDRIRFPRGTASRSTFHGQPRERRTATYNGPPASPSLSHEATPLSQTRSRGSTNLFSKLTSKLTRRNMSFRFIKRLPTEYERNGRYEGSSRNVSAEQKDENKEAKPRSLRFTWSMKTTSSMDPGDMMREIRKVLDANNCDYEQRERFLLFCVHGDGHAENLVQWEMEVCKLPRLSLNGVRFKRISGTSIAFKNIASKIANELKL"}, "[14]": {"target": "T6, MEK6 (Homo sapiens, UniProt P52564)", "T6 construct": "gene MAP2K6", "T6 sequence (P52564 whole entry)": "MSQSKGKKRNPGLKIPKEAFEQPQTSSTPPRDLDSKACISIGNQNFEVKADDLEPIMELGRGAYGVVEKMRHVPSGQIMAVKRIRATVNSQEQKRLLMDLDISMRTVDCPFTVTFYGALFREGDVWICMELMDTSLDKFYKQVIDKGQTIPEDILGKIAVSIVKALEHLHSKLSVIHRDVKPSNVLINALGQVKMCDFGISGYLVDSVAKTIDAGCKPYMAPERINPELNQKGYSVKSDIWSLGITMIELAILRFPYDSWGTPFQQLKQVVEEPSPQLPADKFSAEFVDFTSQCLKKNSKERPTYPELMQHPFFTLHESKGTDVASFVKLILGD"}, "[15]": {"target": "T7, QSK (Homo sapiens, UniProt Q9Y2K2)", "T7 construct": "gene SIK3", "T7 sequence (Q9Y2K2 whole entry)": "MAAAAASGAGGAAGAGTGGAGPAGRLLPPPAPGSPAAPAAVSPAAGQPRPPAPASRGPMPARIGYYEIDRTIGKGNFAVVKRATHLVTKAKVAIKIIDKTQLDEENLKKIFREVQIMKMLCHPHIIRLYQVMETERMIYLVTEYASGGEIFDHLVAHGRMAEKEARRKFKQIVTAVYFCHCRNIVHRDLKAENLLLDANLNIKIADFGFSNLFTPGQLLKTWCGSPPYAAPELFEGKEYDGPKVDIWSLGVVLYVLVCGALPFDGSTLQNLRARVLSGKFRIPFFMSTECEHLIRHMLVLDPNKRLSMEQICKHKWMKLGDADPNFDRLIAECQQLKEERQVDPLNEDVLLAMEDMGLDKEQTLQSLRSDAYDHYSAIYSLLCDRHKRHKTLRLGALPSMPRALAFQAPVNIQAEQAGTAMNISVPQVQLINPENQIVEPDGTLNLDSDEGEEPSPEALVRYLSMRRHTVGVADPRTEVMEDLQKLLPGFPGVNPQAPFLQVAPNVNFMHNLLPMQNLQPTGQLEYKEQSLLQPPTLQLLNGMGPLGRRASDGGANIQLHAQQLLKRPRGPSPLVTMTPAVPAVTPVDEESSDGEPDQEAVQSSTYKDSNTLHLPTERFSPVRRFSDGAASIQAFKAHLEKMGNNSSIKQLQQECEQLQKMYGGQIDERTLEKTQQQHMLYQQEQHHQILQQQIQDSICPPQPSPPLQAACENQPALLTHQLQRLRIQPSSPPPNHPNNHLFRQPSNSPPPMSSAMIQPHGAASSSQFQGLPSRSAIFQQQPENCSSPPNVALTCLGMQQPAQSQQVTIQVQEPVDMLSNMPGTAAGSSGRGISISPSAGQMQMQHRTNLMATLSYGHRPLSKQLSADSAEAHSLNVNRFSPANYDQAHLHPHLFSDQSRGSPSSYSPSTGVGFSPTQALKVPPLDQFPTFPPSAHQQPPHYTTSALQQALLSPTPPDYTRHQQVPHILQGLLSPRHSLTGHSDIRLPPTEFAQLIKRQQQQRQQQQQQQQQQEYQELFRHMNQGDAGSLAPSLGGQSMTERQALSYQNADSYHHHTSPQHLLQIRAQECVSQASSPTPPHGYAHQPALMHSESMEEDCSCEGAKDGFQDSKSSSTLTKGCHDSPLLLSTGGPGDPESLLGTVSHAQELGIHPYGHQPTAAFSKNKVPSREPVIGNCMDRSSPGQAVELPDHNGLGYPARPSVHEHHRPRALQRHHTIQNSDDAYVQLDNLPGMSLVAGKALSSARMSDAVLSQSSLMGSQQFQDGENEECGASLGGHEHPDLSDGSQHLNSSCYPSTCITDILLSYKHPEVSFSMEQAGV"}, "[16]": {"target": "SNRK (Homo sapiens, UniProt Q9NRH2)", "sequence (Q9NRH2 whole entry)": "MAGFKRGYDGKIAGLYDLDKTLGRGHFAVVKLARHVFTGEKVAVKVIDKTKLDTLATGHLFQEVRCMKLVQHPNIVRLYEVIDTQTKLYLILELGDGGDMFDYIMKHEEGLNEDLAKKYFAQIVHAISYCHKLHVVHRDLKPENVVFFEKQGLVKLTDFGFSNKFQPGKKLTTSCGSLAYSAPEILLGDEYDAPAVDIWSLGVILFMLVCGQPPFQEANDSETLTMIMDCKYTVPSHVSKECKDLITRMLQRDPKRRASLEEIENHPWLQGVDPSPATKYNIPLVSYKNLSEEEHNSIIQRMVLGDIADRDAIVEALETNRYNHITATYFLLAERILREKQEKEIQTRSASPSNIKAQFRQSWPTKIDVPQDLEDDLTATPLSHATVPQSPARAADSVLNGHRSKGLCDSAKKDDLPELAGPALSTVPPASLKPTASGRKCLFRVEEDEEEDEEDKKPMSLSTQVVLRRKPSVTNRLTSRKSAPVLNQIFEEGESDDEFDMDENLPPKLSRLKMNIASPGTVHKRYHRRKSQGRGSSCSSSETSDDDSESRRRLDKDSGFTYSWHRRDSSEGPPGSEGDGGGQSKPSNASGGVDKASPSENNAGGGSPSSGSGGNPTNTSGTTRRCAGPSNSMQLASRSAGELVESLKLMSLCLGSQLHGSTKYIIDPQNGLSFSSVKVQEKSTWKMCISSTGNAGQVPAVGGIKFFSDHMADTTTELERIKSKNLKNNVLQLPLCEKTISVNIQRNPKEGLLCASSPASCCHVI"}, "[17]": {"target": "SRPK1 (Homo sapiens, UniProt Q96SB4)"}, "[18]": {"target": "TGFBR2 (Homo sapiens, UniProt P37173)", "sequence (P37173 whole entry)": "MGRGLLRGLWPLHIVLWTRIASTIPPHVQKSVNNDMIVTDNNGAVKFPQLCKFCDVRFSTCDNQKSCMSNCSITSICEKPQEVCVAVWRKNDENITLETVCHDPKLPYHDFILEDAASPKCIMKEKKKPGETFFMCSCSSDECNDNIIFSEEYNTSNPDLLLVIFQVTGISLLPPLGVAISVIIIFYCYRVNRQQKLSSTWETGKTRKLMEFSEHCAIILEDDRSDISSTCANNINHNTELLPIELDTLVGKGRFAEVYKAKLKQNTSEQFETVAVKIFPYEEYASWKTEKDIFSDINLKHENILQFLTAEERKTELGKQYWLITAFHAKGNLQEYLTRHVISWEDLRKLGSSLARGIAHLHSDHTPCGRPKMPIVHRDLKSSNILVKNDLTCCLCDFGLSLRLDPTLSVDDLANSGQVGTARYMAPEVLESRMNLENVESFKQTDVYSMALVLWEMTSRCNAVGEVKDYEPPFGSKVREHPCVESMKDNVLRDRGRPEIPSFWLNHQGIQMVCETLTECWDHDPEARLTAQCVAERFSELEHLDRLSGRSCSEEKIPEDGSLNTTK"}, "[19]": {"target": "T8, YANK1 (Homo sapiens, UniProt Q8WU08)", "T8 construct": "gene STK32A"}}}
{"smiles": "c1ccc2c(c1)Sc1ccccc1N2CCN1CCOCC1", "note": "[J54]", "values": [{"measurement": "remaining binding", "setting": "[1]", "value": 78, "unit": "%"}, {"measurement": "remaining binding", "setting": "[2]", "value": 97, "unit": "%"}, {"measurement": "remaining binding", "setting": "[3]", "value": 100, "unit": "%"}, {"measurement": "remaining binding", "setting": "[4]", "value": 100, "unit": "%"}, {"measurement": "remaining binding", "setting": "[5]", "value": 100, "unit": "%"}, {"measurement": "remaining binding", "setting": "[6]", "value": 100, "unit": "%"}, {"measurement": "remaining binding", "setting": "[7]", "value": 92, "unit": "%"}, {"measurement": "remaining binding", "setting": "[8]", "value": 100, "unit": "%"}, {"measurement": "remaining binding", "setting": "[9]", "value": 100, "unit": "%"}, {"measurement": "remaining binding", "setting": "[10]", "value": 100, "unit": "%"}, {"measurement": "remaining binding", "setting": "[11]", "value": 100, "unit": "%"}, {"measurement": "remaining binding", "setting": "[12]", "value": 100, "unit": "%"}, {"measurement": "remaining binding", "setting": "[13]", "value": 100, "unit": "%"}, {"measurement": "remaining binding", "setting": "[14]", "value": 96, "unit": "%"}, {"measurement": "remaining binding", "setting": "[15]", "value": 100, "unit": "%"}, {"measurement": "remaining binding", "setting": "[16]", "value": 59, "unit": "%"}, {"measurement": "remaining binding", "setting": "[17]", "value": 100, "unit": "%"}, {"measurement": "remaining binding", "setting": "[18]", "value": 99, "unit": "%"}, {"measurement": "remaining binding", "setting": "[19]", "value": 91, "unit": "%"}]}
